Measured values published in patent US10294202B2, “Pyrrolidinones as herbicides” (FMC Corporation, priority 2013, dated 2019).

Key:
ryegrass, Italian = assay: Test A pre-/postemergence herbicide test; format: in vivo, Lolium multiflorum
In short: (§1)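 Visual 0–100 ratings (100 = complete control) made about 10 days after treatment, greenhouse-held plants compared with untreated controls. Treatments: postemergence sprays on one- to two-leaf plants (2–10 cm tall) and preemergence directed soil sprays after planting in loam–sand, chemicals formulated in non-phytotoxic solvent containing surfactant.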

blackgrass = assay: Test A postemergence herbicide test; format: in vivo, Alopecurus myosuroides
In short: (§2)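 Young potted plants in a loam–sand mix, one- to two-leaf stage and 2–10 cm tall, receive the test chemical postemergence and stay in a greenhouse for approximately 10 days. Injury is then judged by eye against untreated plants, scored 0 (none) to 100 (complete control).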

giant foxtail = assay: Test A pre-/postemergence herbicide test; format: in vivo, Setaria faberii
In short: as §1

galium = assay: Test A postemergence herbicide test; format: in vivo, Galium aparine
In short: as §2

corn = assay: Test A pre-/postemergence herbicide test; format: in vivo, Zea mays; conditions: Postemergence
In short: as §1

ducksalad = assay: Test B flooded paddy test; format: in vivo, Heteranthera limosa; conditions: Flood, scale of 0 to 100 where 0 is no effect and 100 is complete control
In short: (§3)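 First, plants reach the 2-leaf stage; next, pots are flooded to 3 cm and compound is delivered into the water; finally, after 13 to 15 greenhouse days at constant depth, injury is graded visually from 0 to 100 against controls.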

kochia = assay: Test A pre-/postemergence herbicide test; format: in vivo, Kochia scoparia
In short: as §1

rice = assay: Test B flooded paddy test; format: in vivo, Oryza sativa; conditions: Flood, scale of 0 to 100 where 0 is no effect and 100 is complete control
In short: as §3

ragweed = assay: Test A pre-/postemergence herbicide test; format: in vivo, Ambrosia elatior
In short: as §1

barnyardgrass [1] = assay: Test A pre-/postemergence herbicide test; format: in vivo, Echinochloa crus-galli
In short: as §1

sedge, umbrella = assay: Test B flooded paddy test; format: in vivo, Cyperus difformis; conditions: Flood, scale of 0 to 100 where 0 is no effect and 100 is complete control
In short: as §3

wheat = assay: Test A pre-/postemergence herbicide test; format: in vivo, Triticum aestivum; conditions: Postemergence
In short: as §1

barnyardgrass [2] = assay: Test B flooded paddy test; format: in vivo, Echinochloa crus-galli; conditions: Flood, scale of 0 to 100 where 0 is no effect and 100 is complete control
In short: as §3

pigweed = assay: Test A pre-/postemergence herbicide test; format: in vivo, Amaranthus retroflexus
In short: as §1

[3] = 125 g ai/ha, visual rating, 0 to 100 scale, 0 no effect, 100 complete control, approximately 10 days, preemergence
[4] = Postemergence, 125 g ai/ha, 0 to 100 scale, 0 is no effect, 100 is complete control
[5] = preemergence, 500 g ai/ha, 0 to 100 scale, 0 is no effect and 100 is complete control
[6] = 125 g ai/ha, 0 to 100 scale, 0 is no effect, 100 is complete control
[7] = Postemergence, 500 g ai/ha, 0 to 100 scale (0 no effect, 100 complete control)
[8] = 500 g ai/ha, 0 to 100 scale (0 no effect, 100 complete control)

Compound | Plant response rating, Ryegrass, Italian (ryegrass, Italian; [3]) | Plant response rating, Ryegrass, Italian (ryegrass, Italian; [4]) | Plant response rating, Ryegrass, Italian (ryegrass, Italian; [5]) | Plant response rating, Blackgrass (blackgrass; [6]) | Plant response rating, Foxtail, Giant (giant foxtail; [3]) | Plant response rating, Foxtail, Giant (giant foxtail; [4]) | Plant response rating, Foxtail, Giant (giant foxtail; [5]) | Plant response rating, Galium (galium; [6]) | Plant response rating, Corn (corn; [6]) | Plant response rating, Ducksalad (ducksalad; 1000 g ai/ha) | Plant response rating, Kochia (kochia; [3]) | Plant response rating, Kochia (kochia; [4]) | Plant response rating, Kochia (kochia; [5]) | Plant response rating, Rice (rice; 1000 g ai/ha) | Plant response rating, Ragweed (ragweed; [3]) | Plant response rating, Ragweed (ragweed; [4]) | Plant response rating, Ragweed (ragweed; [5]) | Plant response rating, Barnyardgrass (barnyardgrass [1]; [3]) | Plant response rating, Barnyardgrass (barnyardgrass [1]; [4]) | Plant response rating, Barnyardgrass (barnyardgrass [1]; [5]) | also measured
COc1ccc(C2CNC(=O)C2C(=O)Nc2cccc(F)c2F)cc1C(F)(F)F (stereo not shown) [Compound 234] | 30 | 20 | 30 | 0 | 70 | 40 | 90 | 30 | 0 | 85 | 20 | 0 | 50 | 0 | 0 | 0 | 20 | 60 | 60 | 90 | Ryegrass, Italian plant response rating (0 to 100 scale, 0 is no effect, 100 is complete control) (ryegrass, Italian; Postemergence, 500 g ai/ha): 30; Blackgrass plant response rating (0 to 100 scale, 0 is no effect, 100 is complete control) (blackgrass; 500 g ai/ha): 30; Foxtail, Giant plant response rating (0 to 100 scale, 0 is no effect, 100 is complete control) (giant foxtail; Postemergence, 500 g ai/ha): 80; Galium plant response rating (0 to 100 scale, 0 is no effect, 100 is complete control) (galium; 500 g ai/ha): 50; Corn plant response rating (0 to 100 scale, 0 is no effect, 100 is complete control) (corn; 500 g ai/ha): 60; Kochia plant response rating (0 to 100 scale, 0 is no effect, 100 is complete control) (kochia; Postemergence, 500 g ai/ha): 30; Ragweed plant response rating (0 to 100 scale, 0 is no effect, 100 is complete control) (ragweed; Postemergence, 500 g ai/ha): 0; Barnyardgrass plant response rating (0 to 100 scale, 0 is no effect, 100 is complete control) (barnyardgrass [1]; Postemergence, 500 g ai/ha): 90; Plant response rating, Sedge, Umbrella (sedge, umbrella; 1000 g ai/ha): 0; Plant response rating, Wheat (wheat; [6]): 0; Wheat plant response rating (0 to 100 scale, 0 is no effect, 100 is complete control) (wheat; 500 g ai/ha): 40; Plant response rating, Barnyardgrass (barnyardgrass [2]; 1000 g ai/ha): 75; Plant response rating, Pigweed (pigweed; [3]): 0; Plant response rating, Pigweed (pigweed; [4]): 0; Pigweed plant response rating (0 to 100 scale, 0 is no effect, 100 is complete control) (pigweed; Postemergence, 500 g ai/ha): 0; Plant response rating, Pigweed (pigweed; [5]): 20
O=C1NCC(c2ccc(-c3ccccc3F)cc2)C1C(=O)Nc1cccc(F)c1F (stereo not shown) [Compound 235] | 0 | 0 | 0 | 0 | 40 | 10 | 80 | 50 | 0 | 50 | 0 | 0 | 0 | 0 | 0 | 0 | 0 | 0 | 10 | 60 | Ryegrass, Italian plant response rating (0 to 100 scale, 0 is no effect, 100 is complete control) (ryegrass, Italian; Postemergence, 500 g ai/ha): 0; Blackgrass plant response rating (0 to 100 scale, 0 is no effect, 100 is complete control) (blackgrass; 500 g ai/ha): 20; Foxtail, Giant plant response rating (0 to 100 scale, 0 is no effect, 100 is complete control) (giant foxtail; Postemergence, 500 g ai/ha): 50; Galium plant response rating (0 to 100 scale, 0 is no effect, 100 is complete control) (galium; 500 g ai/ha): 70; Corn plant response rating (0 to 100 scale, 0 is no effect, 100 is complete control) (corn; 500 g ai/ha): 20; Plant response rating, Ducksalad (ducksalad; 250 g ai/ha): 0; Kochia plant response rating (0 to 100 scale, 0 is no effect, 100 is complete control) (kochia; Postemergence, 500 g ai/ha): 20; Plant response rating, Rice (rice; 250 g ai/ha): 0; Ragweed plant response rating (0 to 100 scale, 0 is no effect, 100 is complete control) (ragweed; Postemergence, 500 g ai/ha): 0; Barnyardgrass plant response rating (0 to 100 scale, 0 is no effect, 100 is complete control) (barnyardgrass [1]; Postemergence, 500 g ai/ha): 20; Plant response rating, Sedge, Umbrella (sedge, umbrella; 250 g ai/ha): 0; Plant response rating, Sedge, Umbrella (sedge, umbrella; 1000 g ai/ha): 0; Plant response rating, Wheat (wheat; [6]): 0; Wheat plant response rating (0 to 100 scale, 0 is no effect, 100 is complete control) (wheat; 500 g ai/ha): 0; Plant response rating, Barnyardgrass (barnyardgrass [2]; 250 g ai/ha): 0; Plant response rating, Barnyardgrass (barnyardgrass [2]; 1000 g ai/ha): 45; Plant response rating, Pigweed (pigweed; [3]): 0; Plant response rating, Pigweed (pigweed; [4]): 0; Pigweed plant response rating (0 to 100 scale, 0 is no effect, 100 is complete control) (pigweed; Postemergence, 500 g ai/ha): 50; Plant response rating, Pigweed (pigweed; [5]): 0
O=C1NCC(c2ccc(-c3ccccc3C(F)(F)F)cc2)C1C(=O)Nc1cccc(F)c1F (stereo not shown) [Compound 236] | 0 | 0 | 50 | 0 | 0 | 0 | 0 | 0 | 0 | 70 | 0 | 0 | 0 | 0 | 0 | 0 | 30 | 0 | 0 | 0 | Ryegrass, Italian plant response rating (0 to 100 scale, 0 is no effect, 100 is complete control) (ryegrass, Italian; Postemergence, 500 g ai/ha): 0; Blackgrass plant response rating (0 to 100 scale, 0 is no effect, 100 is complete control) (blackgrass; 500 g ai/ha): 0; Foxtail, Giant plant response rating (0 to 100 scale, 0 is no effect, 100 is complete control) (giant foxtail; Postemergence, 500 g ai/ha): 0; Galium plant response rating (0 to 100 scale, 0 is no effect, 100 is complete control) (galium; 500 g ai/ha): 0; Corn plant response rating (0 to 100 scale, 0 is no effect, 100 is complete control) (corn; 500 g ai/ha): 0; Kochia plant response rating (0 to 100 scale, 0 is no effect, 100 is complete control) (kochia; Postemergence, 500 g ai/ha): 0; Ragweed plant response rating (0 to 100 scale, 0 is no effect, 100 is complete control) (ragweed; Postemergence, 500 g ai/ha): 0; Barnyardgrass plant response rating (0 to 100 scale, 0 is no effect, 100 is complete control) (barnyardgrass [1]; Postemergence, 500 g ai/ha): 0; Plant response rating, Sedge, Umbrella (sedge, umbrella; 1000 g ai/ha): 0; Plant response rating, Wheat (wheat; [6]): 0; Wheat plant response rating (0 to 100 scale, 0 is no effect, 100 is complete control) (wheat; 500 g ai/ha): 0; Plant response rating, Barnyardgrass (barnyardgrass [2]; 1000 g ai/ha): 40; Plant response rating, Pigweed (pigweed; [3]): 0; Plant response rating, Pigweed (pigweed; [4]): 0; Pigweed plant response rating (0 to 100 scale, 0 is no effect, 100 is complete control) (pigweed; Postemergence, 500 g ai/ha): 0; Plant response rating, Pigweed (pigweed; [5]): 0
COc1ccc(C2CNC(=O)C2C(=O)Nc2ccccc2C(F)(F)F)cc1C(F)(F)F (stereo not shown) [Compound 240] | 0 | 0 | 0 | 0 | 70 | 40 | 90 | 0 | 0 | 85 | 0 | 0 | 0 | 0 | 0 | 0 | 0 | 20 | 30 | 50 | Plant response rating, Ryegrass, Italian (ryegrass, Italian; [7]): 0; Plant response rating, Blackgrass (blackgrass; [8]): 0; Plant response rating, Foxtail, Giant (giant foxtail; [7]): 80; Plant response rating, Galium (galium; [8]): 0; Plant response rating, Corn (corn; [8]): 20; Plant response rating, Kochia (kochia; [7]): 0; Plant response rating, Ragweed (ragweed; [7]): 0; Plant response rating, Barnyardgrass (barnyardgrass [1]; [7]): 90; Plant response rating, Sedge, Umbrella (sedge, umbrella; 1000 g ai/ha): 0; Plant response rating, Wheat (wheat; [6]): 0; Plant response rating, Wheat (wheat; [8]): 20; Plant response rating, Barnyardgrass (barnyardgrass [2]; 1000 g ai/ha): 70; Plant response rating, Pigweed (pigweed; [3]): 0; Plant response rating, Pigweed (pigweed; [4]): 0; Plant response rating, Pigweed (pigweed; [7]): 0; Plant response rating, Pigweed (pigweed; [5]): 0
